Measurements from ChEMBL document CHEMBL1129179, “Antimicrobial evaluation of 3,1-benzoxazin-4-ones, 3,1-benzothiazin-4-ones, 4-alkoxyquinazolin-2-carbonitriles and N-arylimino-1,2,3-dithiazoles” (1996).
Calls of active or inactive are those of the source.

How the values were obtained:
Type in all cases: functional, organism-based
Escherichia coli = assay: Antibacterial activity against gram-negative bacteria Escherichia coli ATCC 25922; No effect
Enterococcus faecalis = assay: Antibacterial activity against gram-positive bacteria Enterococcus faecalis ATCC 29212; No effect
Klebsiella pneumoniae = assay: Antibacterial activity against gram-negative bacteria K. pneumoniae; No effect
Listeria monocytogenes = assay: Antibacterial activity against gram-positive bacteria Listeria monocytogenes CIP 82110T; No effect
Proteus mirabilis = assay: Antibacterial activity against gram-negative bacteria Proteus mirabilis CIP 1031811; No effect
Pseudomonas aeruginosa = assay: Antibacterial activity against gram-negative bacteria Pseudomonas aeruginosa ATCC 27853; No effect
Salmonella typhimurium = assay: Antibacterial activity against gram-negative bacteria Salmonella ser. Typhimurium; No effect; settings: Salmonella enterica subsp. enterica serovar Typhimurium
Staphylococcus aureus = assay: Antibacterial activity against gram-positive bacteria Staphylococcus aureus ATCC 9144; No effect
Streptococcus pyogenes = assay: Antibacterial activity against gram-positive bacteria Streptococcus pyogenes ATCC 19165; No effect
Salmonella enterica = assay: Antibacterial activity against gram-negative bacteria S. choleraesuis; No effect

Measured: Activity

N#Cc1nc2cc(Cl)ccc2c(=O)s1
inactive: all assays above

COc1nc(C#N)nc2ccccc12
inactive: all assays above

N#Cc1nc2ccccc2c(=O)s1
inactive: all assays above

CCOc1nc(C#N)nc2ccccc12
inactive: all assays above

COc1cc2nc(C#N)sc(=O)c2cc1OC
inactive: all assays above

COc1cc2nc(C#N)nc(OC)c2cc1OC
inactive: all assays above

CCCCOc1nc(C#N)nc2cc(OC)c(OC)cc12
inactive: all assays above

N#Cc1nc2cc(Cl)ccc2c(=O)o1
inactive: all assays above

COc1cc2nc(C#N)nc(OC(C)C)c2cc1OC
inactive: all assays above

COc1cc2nc(C#N)oc(=O)c2cc1OC
inactive: all assays above

CCSc1nc(C#N)nc2cc(OC)c(OC)cc12
inactive: all assays above
